Assay results published in US12138242B1, “Controlling neuropathic pain” (Frimline Private Limited, priority 2017, dated 2024).

Tested on: Oxaliplatin induced peripheral neuropathy in rat
Assay: Cold hyperalgesia method (tail immersion test), oxaliplatin induced peripheral neuropathy
Format: in vivo, Wistar
Details: for % (average tail immersion time relative to 20.00 of normal control): Table 2, doses of Table 1 p.o.; for % (average tail immersion time relative to 20.00 of normal control) / Duration of tail immersion, AVG / Duration of tail immersion, Animal Mark 1 / Duration of tail immersion, Animal Mark 2 / Duration of tail immersion, Animal Mark 3 / Duration of tail immersion, Animal Mark 4 / Duration of tail immersion, Animal Mark 5 / Duration of tail immersion, Animal Mark 6: rat; for % (average tail immersion time relative to 20.00 of normal control) / Duration of tail immersion, AVG: n=6; for % (Day 4 relative to 20.00) / Tail immersion time, Day 0 / Tail immersion time, Day 4: Table 3, groups named by human effective dose/day; for Duration of tail immersion, AVG / Duration of tail immersion, Animal Mark 1 / Duration of tail immersion, Animal Mark 2 / Duration of tail immersion, Animal Mark 3 / Duration of tail immersion, Animal Mark 4 / Duration of tail immersion, Animal Mark 5 / Duration of tail immersion, Animal Mark 6: p.o. Day 1-3 at doses of Table 1, 24 hrs after oxaliplatin 12 mg/kg i.p., cut-off 20 seconds
Description: Example 21—Animal Study—Screening effect of synergistic combination or composition/formulation comprising PEA and other natural ingredients against Oxaliplatin induced peripheral neuropathy in rat.
• Species: Rat (Rattus norvegicus); • Strain: Wistar; Sex: Male/Female • No. of animals: 54 Animals (n=6 per group) • Animal House conditions: • Lighting: 12/12 hour light-dark cycle • Temperature: 25±2° C. • Relative Humidity: 30 to 70% • Temperature and relative humidity were recorded Thrice daily.
EXPERIMENTAL PROCEDURE: In study fifty-four (54) rats, were divided into total nine (09) groups. Group 1 served as the normal control, Group 2 served as the disease control, Group 3, Group 4 and Group 5 served as component (A, B and C), Group 6, Group 7 and Group 8 served as formulation of test drug, while Group 9 served as the Reference standard group. For these studies, the following combinations were used.
Group-1 received vehicle (0.25% w/v Sodium CMC) orally (p.o.) for three consecutive days (Day 1, 2 & 3). Group-2 to Group-8 received test drugs, while Group 9 received Pregabalin orally (p.o.) on Day-1, Day-2 and Day-3. All treatment groups (Group 2 to 9) were administered with oxaliplatin (12 mg/kg, i.p.) on Day-3 prior to 2 hrs of test drug administration. After 24 hrs of oxaliplatin administration, treated groups as well as the normal control group were assessed using the Cold hyperalgesia method.
Cold Hyperalgesia method (Tail Immersion Test): In the Tail-immersion test, water was maintained at low (0 to 4-C) temperature. The tail of the rat was immersed in cold water and the duration (time in seconds) of tail immersion was recorded, until the tail was withdrawn from water. The cut-off time of 20 seconds was used. The decrease in tail contact time with cold water was indicative pain whereas prolonged contact time was noted as anti-allodynic effect.

SMILES	% (average tail immersion time relative to 20.00 of normal control)	% (Day 4 relative to 20.00)	Tail immersion time, Day 0	Tail immersion time, Day 4	Duration of tail immersion, AVG	Duration of tail immersion, Animal Mark 1	Duration of tail immersion, Animal Mark 2	Duration of tail immersion, Animal Mark 3	Duration of tail immersion, Animal Mark 4	Duration of tail immersion, Animal Mark 5	Duration of tail immersion, Animal Mark 6
O=c1c(-c2ccc(O)cc2)coc2cc(O)cc(O)c12 [Genistein]	37.58%	37.58%	20.00	7.52	7.52 s	7.68 s	7.15 s	7.23 s	7.68 s	7.68 s	7.68 s
CCCCCCCCCCCCCCCC(=O)NCCO [PEA, Palmitoylethanolamide]	55.73%	55.73%	20.00	11.15	11.15 s	11.32 s	11.55 s	10.85 s	10.97 s	11.44 s	10.75 s
O=c1c(-c2ccc(O)cc2)coc2cc(O)ccc12 [Daidzein]	41.38%	41.38%	20.00	8.28	8.28 s	8.55 s	8.00 s	8.98 s	7.95 s	8.12 s	8.05 s
CC(C)C[C@H](CN)CC(=O)O [Pregabalin, reference compound]	96.27%	96.27%	20.00	19.25	19.25 s	17.20 s	20.00 s	20.00 s	19.95 s	18.37 s	20.00 s
